{"source": "patent US4505924A", "about": "“Pharmaceutical preparation for the topical treatment of acne” (Richardson-Vicks Ltd., priority 1982, dated 1985)", "key": {"[1]": {"experiment": "Zone diffusion test for synergistic activity", "format": "cell-based", "conditions": "single substance; for zone of inhibition at 10 µg/disc: 10 μg; for zone of inhibition at 100 µg/disc: 100 μg", "protocol": "Imazalil and Hexamidine were tested for synergistic activity using a zone diffusion test."}, "lipase": {"system": "lipase", "experiment": "Direct inhibition of P. acnes lipase activity", "format": "biochemical, Propionibacterium acnes", "protocol": "(§1) Imazalil and Hexamidine have been studied for anti-enzymic properties against the production and activity of the exoenzymes of Propionibacterium acnes.\nThere was a 29% reduction of lipase activity in the presence of 10 μg/ml Imazalil and a 68% reduction with 100 μg/ml Imazalil.\n(i) A leval of 1 μg/ml Hexamidine reduced lipase activity by 33%.\n(i) 100 μg/ml Imazalil and 1 ug/ml Hexamidine reduced lipase activity by 55%."}, "P. acnes [2]": {"system": "P. acnes", "experiment": "Zone diffusion test", "format": "cell-based", "protocol": "(§2) A zone diffusion test was carried out on the three emulsions. The results were as follows:\n(§3) The ranking order for activity against P. acnes was the same as the GMS emulsions."}, "S. epidermidis": {"system": "S. epidermidis", "experiment": "Zone diffusion test", "format": "cell-based", "protocol": "as §2, §3"}, "P. acnes [3]": {"system": "P. acnes", "experiment": "Zone diffusion test using 1% artificial sebum in agar (resistance to inactivation by sebum)", "format": "cell-based", "conditions": "for zone of inhibition at 10 µg/disc / zone of inhibition at 100 µg/disc: Cutibacterium acnes; for zone of inhibition at 10 µg/disc: 10 μg; for zone of inhibition at 100 µg/disc: 100 μg"}, "acid phosphatase": {"system": "acid phosphatase", "experiment": "Acid phosphatase production by P. acnes in continuous culture (chemostat)", "format": "cell-based, Propionibacterium acnes", "conditions": "growth in the presence of 10 μg/ml Imazalil", "excerpt": "(§4) The enzymes are believed to play a role in the pathogenesis of acne. Imazalil is a direct lipase inhibitor and also reduces the production of hyaluronidase and acid phosphatase. Hexamidine likewise reduces the lipase activity.\nas §1\n(§5) (ii) Imazalil reduced the output of hyaluronidase and acid phosphatase by P.acnes.\n(§6) Levels of hyaluronidase fell by 50% after growth in the presence of 10 μg/ml Imazalil.\n(§7) (ii) Production of lipase, hyaluronidase and acid phosphatase was markedly affected by a mixture of 10 μg/ml Imazalil and 1 μg/ml Hexamidine. […] Hyaluronidase output was reduced by 50%. Acid phosphatase output was reduced by 80%."}, "hyaluronidase": {"system": "hyaluronidase", "experiment": "Hyaluronidase production by P. acnes in continuous culture (chemostat)", "format": "cell-based, Propionibacterium acnes", "conditions": "growth in the presence of 10 μg/ml Imazalil", "excerpt": "as §4, §1, §5, §6, §7"}, "Pi. ovale": {"system": "Pi. ovale", "experiment": "Zone diffusion test", "format": "cell-based", "conditions": "Pityrosporum ovale, read-out: Zone of Imhibition, Pi. ovale"}, "[4]": {"conditions": "1% artificial sebum in agar, read-out: Zone of Inhibition, Sebum"}, "[5]": {"conditions": "control agar, read-out: Zone of Inhibition, Control"}}, "note": "Like-named read-outs stand apart in the source and are kept apart here."}
{"smiles": "N=C(N)c1ccc(OCCCCCCOc2ccc(C(=N)N)cc2)cc1", "note": "[Hexamidine, 4,4-(hexamethylene (dihydroxy)-dibenzamidine-di-β-hydroxy ethanesulfonate]", "values": [{"measurement": "zone of inhibition at 1 µg/disc", "setting": "[1]; 1 μg", "value": 3, "unit": "mm"}, {"measurement": "zone of inhibition at 10 µg/disc", "setting": "[1]", "value": 10, "unit": "mm"}, {"measurement": "zone of inhibition at 100 µg/disc", "setting": "[1]", "value": 29.5, "unit": "mm"}, {"measurement": "reduction of lipase activity", "setting": "lipase; 1 μg/ml Hexamidine", "value": 33, "unit": "%"}, {"measurement": "Zone of Imhibition, P. acnes", "setting": "P. acnes [2]; 20 μg", "value": 22.5, "unit": "mm"}, {"measurement": "zone of inhibition at 20 µg/disc", "setting": "P. acnes [2]; Cutibacterium acnes, 20 μg, read-out: Zone of Imhibition, P. acnes", "value": 17, "unit": "mm"}, {"measurement": "Zone of Imhibition, S. epidermidis", "setting": "S. epidermidis; 20 μg", "value": 13, "unit": "mm"}, {"measurement": "zone of inhibition at 20 µg/disc", "setting": "S. epidermidis; Staphylococcus epidermidis, 20 μg, read-out: Zone of Imhibition, S. epidermidis", "value": 10, "unit": "mm"}, {"measurement": "inhibitive effect of lipids (sebum) on activity", "setting": "P. acnes [3]; 1% artificial sebum in agar", "value": "totally resistant"}, {"measurement": "zone of inhibition at 10 µg/disc", "setting": "P. acnes [3]; [4]", "value": 11, "unit": "mm"}, {"measurement": "zone of inhibition at 10 µg/disc", "setting": "P. acnes [3]; [5]", "value": 9, "unit": "mm"}, {"measurement": "zone of inhibition at 100 µg/disc", "setting": "P. acnes [3]; [4]", "value": 33, "unit": "mm"}, {"measurement": "zone of inhibition at 100 µg/disc", "setting": "P. acnes [3]; [5]", "value": 31.5, "unit": "mm"}]}
{"smiles": "C=CCOC(Cn1ccnc1)c1ccc(Cl)cc1Cl", "note": "(stereo not drawn) [Imazalil, 1-[2-(2,4-dichlorophenyl)-2-(2-propenyloxy)ethyl]-1H-imidazole]", "values": [{"measurement": "zone of inhibition at 10 µg/disc", "setting": "[1]", "value": 0, "unit": "mm"}, {"measurement": "zone of inhibition at 100 µg/disc", "setting": "[1]", "value": 5.5, "unit": "mm"}, {"measurement": "Production of acid phosphatase", "setting": "acid phosphatase", "value": "totally inhibited"}, {"measurement": "reduction of lipase activity", "setting": "lipase; 10 μg/ml Imazalil", "value": 29, "unit": "%"}, {"measurement": "reduction of lipase activity", "setting": "lipase; 100 μg/ml Imazalil", "value": 68, "unit": "%"}, {"measurement": "fall of hyaluronidase levels", "setting": "hyaluronidase", "value": 50, "unit": "%"}, {"measurement": "zone of inhibition at 10 µg/disc", "setting": "P. acnes [2]; Cutibacterium acnes, 10 μg, read-out: Zone of Imhibition, P. acnes", "value": 3, "unit": "mm"}, {"measurement": "zone of inhibition at 80 µg/disc", "setting": "P. acnes [2]; Cutibacterium acnes, 80 μg, read-out: Zone of Imhibition, P. acnes", "value": 22, "unit": "mm"}, {"measurement": "zone of inhibition at 10 µg/disc", "setting": "S. epidermidis; Staphylococcus epidermidis, 10 μg, read-out: Zone of Imhibition, S. epidermidis", "value": 3, "unit": "mm"}, {"measurement": "zone of inhibition at 80 µg/disc", "setting": "S. epidermidis; Staphylococcus epidermidis, 80 μg, read-out: Zone of Imhibition, S. epidermidis", "value": 7.5, "unit": "mm"}, {"measurement": "zone of inhibition at 10 µg/disc", "setting": "Pi. ovale; 10 μg", "value": 11, "unit": "mm"}, {"measurement": "zone of inhibition at 80 µg/disc", "setting": "Pi. ovale; 80 μg", "value": 28, "unit": "mm"}, {"measurement": "inhibitive effect of lipids (sebum) on activity", "setting": "P. acnes [3]; 1% artificial sebum in agar", "value": "partially inhibited"}, {"measurement": "zone of inhibition at 10 µg/disc", "setting": "P. acnes [3]; [4]", "value": 0, "unit": "mm"}, {"measurement": "zone of inhibition at 10 µg/disc", "setting": "P. acnes [3]; [5]", "value": 0, "unit": "mm"}, {"measurement": "zone of inhibition at 100 µg/disc", "setting": "P. acnes [3]; [4]", "value": 1.5, "unit": "mm"}, {"measurement": "zone of inhibition at 100 µg/disc", "setting": "P. acnes [3]; [5]", "value": 5, "unit": "mm"}]}
